Measurements from ChEMBL document CHEMBL5331060, “Bisindole natural products: A vital source for the development of new anticancer drugs” (Eur J Med Chem, 2022).

Experiments:
HL-60 [1] = test: Antiproliferative activity against human HL-60 cells assessed as inhibition of cell growth incubated for 48 hrs by WST-1 assay; assay type: functional, cell-based; settings: HL-60, 48 h
K562 = test: Antiproliferative activity against human K562 cells assessed as inhibition of cell growth incubated for 48 hrs by WST-1 assay; assay type: functional, cell-based; settings: K562, 48 h
SMMC-7721 = test: Antiproliferative activity against human SMMC-7721 cells assessed as inhibition of cell growth incubated for 48 hrs by MTS assay; assay type: functional, cell-based; settings: SMMC-7721, 48 h
A549 [2] = test: Antiproliferative activity against human A549 cells assessed as inhibition of cell growth incubated for 48 hrs by MTS assay; assay type: functional, cell-based; settings: A549, 48 h
HL-60 [3] = test: Antiproliferative activity against human HL-60 cells assessed as inhibition of cell growth incubated for 48 hrs by MTS assay; assay type: functional, cell-based; settings: HL-60, 48 h
MCF7 [4] = test: Antiproliferative activity against human MCF7 cells assessed as inhibition of cell growth incubated for 48 hrs by MTS assay; assay type: functional, cell-based; settings: MCF7, 48 h
SW480 [5] = test: Antiproliferative activity against human SW480 cells assessed as inhibition of cell growth incubated for 48 hrs by MTS assay; assay type: functional, cell-based; settings: SW480, 48 h
HeLa [6] = test: Antiproliferative activity against human HeLa cells assessed as inhibition of cell growth incubated for 6 hrs; assay type: functional, cell-based
HeLa [7] = test: Antiproliferative activity against human HeLa cells assessed as inhibition of cell growth incubated for 24 hrs; assay type: functional, cell-based
MCF7 [8] = test: Antiproliferative activity against human MCF7 cells assessed as inhibition of cell growth incubated for 24 hrs by MTT assay; assay type: functional, cell-based; settings: MCF7, 24 h
KB [9] = test: Antiproliferative activity against drug-sensitive human KB cells assessed as inhibition of cell growth; assay type: functional, cell-based
[10] = Antiproliferative activity against vincristine-resistant human KB cells assessed as inhibition of cell growth; assay type: functional, cell-based
HepG2 = test: Antiproliferative activity against human HepG2 cells assessed as inhibition of cell growth by MTT assay; assay type: functional, cell-based
MCF7 [11] = test: Antiproliferative activity against human MCF7 cells assessed as inhibition of cell growth by MTT assay; assay type: functional, cell-based
LoVo = test: Antiproliferative activity against human LoVo cells assessed as inhibition of cell growth by MTT assay; assay type: functional, cell-based
HT-29 = test: Antiproliferative activity against human HT-29 cells assessed as inhibition of cell growth incubated for 48 hrs by MTS assay; assay type: functional, cell-based; settings: HT-29, 48 h
HeLa [12] = test: Antiproliferative activity against human HeLa cells assessed as inhibition of cell growth incubated for 48 hrs by MTT assay; assay type: functional, cell-based
MCF7 [13] = test: Antiproliferative activity against human MCF7 cells assessed as inhibition of cell growth incubated for 48 hrs by MTT assay; assay type: functional, cell-based; settings: MCF7, 48 h
SW480 [14] = test: Antiproliferative activity against human SW480 cells assessed as inhibition of cell growth incubated for 48 hrs by MTT assay; assay type: functional, cell-based; settings: SW480, 48 h
A549 [15] = test: Antiproliferative activity against human A549 cells assessed as inhibition of cell growth incubated for 72 hrs by SRB assay; assay type: functional, cell-based; settings: A549, 72 h
MCF7 [16] = test: Antiproliferative activity against human MCF7 cells assessed as inhibition of cell growth incubated for 72 hrs by SRB assay; assay type: functional, cell-based; settings: MCF7, 72 h
HCT-116 = test: Cytotoxicity against human HCT-116 cells assessed as reduction in cell viability at 20 uM measured after 48 hrs by MTS assay relative to control; assay type: functional
KB [17] = test: Antiproliferative activity against human KB cells assessed as inhibition of cell growth incubated for 72 hrs by neutral red based colorimetric assay; assay type: functional

SMILES: CC[C@]12C=CCN3CC[C@@]4(c5cc([C@@]6(C(=O)OC)C[C@@H]7CC(=O)N(CCc8c6[nH]c6ccccc86)C7)c(OC)cc5N(C)[C@H]4[C@@](O)(C(=O)OC)C1)[C@@H]32
- IC50 (HL-60 [1]): 9.1 µM
- IC50 (K562): 9.3 µM

SMILES: CC[C@]12C=C([C@@H]3C=C[C@@]4(CC)CC(C(=O)OC)=C5Nc6ccccc6[C@@]56CCN3[C@@H]46)[C@@H](CC(C)=O)N3CC[C@]4(C(=C(C(=O)OC)C1)Nc1ccccc14)[C@@H]32
- IC50 (SMMC-7721): 13.1 µM
- IC50 (A549 [2]): 13.1 µM
- IC50 (HL-60 [3]): 13.1 µM
- IC50 (MCF7 [4]): 13.1 µM
- IC50 (SW480 [5]): 13.1 µM

SMILES: NC[C@@H](NC(=O)C(=O)c1c[nH]c2ccccc12)c1c[nH]c2cc(Br)ccc12
- IC50 (HeLa [6]): > 200 µM
- IC50 (HeLa [7]): > 200 µM

SMILES: O=C1C[C@@H]2c3cc(O)c(O)cc3[C@@]3(Nc4ccccc4C3=O)[C@@]23C(=O)c2ccccc2N13
- IC50 (MCF7 [8]): 32.2 µM

SMILES: C/C=C1/CN2[C@H]3Cc4c([nH]c5ccc(O)c([C@H]6Cn7c8c(c9ccccc97)CCN7CC=C[C@@]6(CC)[C@H]87)c45)[C@@H]2C[C@@H]1[C@]3(CO)C(=O)OC
- IC50 (KB [9]): 0.57 µM
- IC50 [10]: 0.57 µM

SMILES: N[C@H](CNC(=O)C(=O)c1c[nH]c2ccccc12)c1c[nH]c2cc(Br)ccc12
- IC50 (HeLa [6]): 165 µM
- IC50 (HeLa [7]): 146 µM

SMILES: O=C1C[C@H]2c3ccc(O)c(O)c3[C@]3(Nc4ccccc4C3=O)[C@]23C(=O)c2ccccc2N13
- IC50 (MCF7 [8]): 78.5 µM

SMILES: CC[C@]12C=C([C@H]3C=C[C@@]4(CC)CC(C(=O)OC)=C5Nc6ccccc6[C@@]56CCN3[C@@H]46)CN3CC[C@]4(C(=C(C(=O)OC)C1)Nc1ccccc14)[C@@H]32
- IC50 (SMMC-7721): 13.1 µM
- IC50 (A549 [2]): 13.1 µM
- IC50 (HL-60 [3]): 13.1 µM
- IC50 (MCF7 [4]): 13.1 µM
- IC50 (SW480 [5]): 13.1 µM

SMILES: CC[C@]12C=C[C@H](C3=C[C@@]4(CC)CC(C(=O)OC)=C5Nc6ccccc6[C@@]56CCN([C@@H]3CC(C)=O)[C@@H]46)N3CC[C@]4(C(=C(C(=O)OC)C1)Nc1ccccc14)[C@@H]32
- IC50 (SMMC-7721): 13.1 µM
- IC50 (A549 [2]): 13.1 µM
- IC50 (HL-60 [3]): 13.1 µM
- IC50 (MCF7 [4]): 13.1 µM
- IC50 (SW480 [5]): 13.1 µM

SMILES: CC[C@@H]1C[C@H]2C[C@](C(=O)OC)(c3cc4c(cc3OC)N(C)[C@H]3[C@@](O)(C(=O)OC)[C@H](OC(C)=O)[C@]5(CC)C=CCN6CC[C@]43[C@@H]65)c3[nH]c4ccccc4c3CC[N+]([O-])(C1)C2
- IC50 (HepG2): 38.2 µM
- IC50 (MCF7 [11]): 51.3 µM
- IC50 (LoVo): 65.2 µM

SMILES: CC[C@@]12C=C(C(=O)OC)C3Nc4cc(OC)c(O)cc4[C@@]34CCN([C@@H]3c5cc6c(cc5O[C@@H]3[C@H]1O)NC1=C(C(=O)OC)C[C@]3(CC)[C@@H]5O[C@@H]5CN5CC[C@@]16[C@@H]53)[C@@H]24 (some centres not stated)
- IC50 (SMMC-7721): > 40 µM
- IC50 (HT-29): > 40 µM
- IC50 (A549 [2]): > 40 µM
- IC50 (HeLa [12]): 1.42 µM
- IC50 (MCF7 [13]): 1.42 µM
- IC50 (SW480 [14]): 1.42 µM

SMILES: CC[C@@H]1CN(C)[C@H]2Cc3c([nH]c4ccccc34)[C@H](c3cc4c5c([nH]c4cc3OC)[C@@]3(C(=O)OC)C[C@H]4C[C@@H](CC)[C@@H]3N(CC5)[C@H]4CC(C)=O)C[C@H]1[C@@H]2C(=O)OC
- IC50 (A549 [15]): < 10 µM
- IC50 (MCF7 [16]): < 10 µM
- Activity (HCT-116): 70%

SMILES: C/C=C1/CN2CC[C@@]34c5cc(OC)c(-c6cc7c8c(n(C)c7cc6OC)[C@@H]6[C@H]7O[C@@H](C)[C@H](CN6C(=O)C(C)C)[C@H]7[C@H]8C(=O)OC)c(C)c5N(C)[C@@]23CC[C@H]1[C@H]4C(=O)OC
- IC50 (KB [17]): 6 µM

SMILES: CC[C@@]12CC(C(=O)OC)=C3Nc4cc5c(cc4[C@@]34CCN(C[C@H]3O[C@H]31)[C@@H]24)[C@@H]1[C@H](O5)[C@@H](O)[C@@]2(CC)CC(C(=O)OC)=C3Nc4c(cc(O)c(OC)c4OC)[C@@]34CC[N+]1([O-])[C@@H]24 (some centres not stated)
- IC50 (HeLa [12]): 1.42 µM
- IC50 (MCF7 [13]): 1.42 µM
- IC50 (SW480 [14]): 1.42 µM

SMILES: C/C=C1/CN2CC[C@@]34c5cc(OC)c(-c6cc7c8c(n(C)c7cc6OC)[C@@H]6[C@H]7O[C@@H](C)[C@H](CN6C(=O)C(C)C)[C@H]7[C@H]8C(=O)OC)c(C)c5N[C@@]23CC[C@H]1[C@H]4C(=O)OC
- IC50 (KB [17]): 5 µM
